Measurements from BindingDB's records for patent WO2022081842 (THE BROAD INSTITUTE, INC., 2022).

Experiments:
[1] = molecular target: Histone acetyltransferase KAT6B (Human, UniProt Q8WYB5); test: Kat6b Activity Assay
Source text: Kat6b inhibitory activities of the compounds described in the present invention were quantified using a Fluorescence Resonance Energy Transfer (TR-FRET) assay which measures acetylation of a synthetic, biotinylated Histone-H4-derived peptide by the enzyme.Recombinant human GST-tagged Kat6b protein (431-end, N-terminal GST-tag), purified from Baculovirus- infected insect cells (Sf9), was purchased from SignalChem (#K315-381BG). Histone H4 peptide (amino acids 1-24, […]-VLRD-K(Btn)-amide), which was used as substrate, was synthesized by Biosyntan GmbH, Berlin, Germany. Acetyl Coenzyme A was purchased from Sigma-Aldrich (#A-2056). Kat6b was incubated for 30 mins at 22°C in the presence of different concentrations of test substances (0 μM, and within the range 0.01 - 20 μM) in assay buffer [25 mM Tris/HCl pH 8, 1 mM EGTA, 2.5 mM Glutathion, 0.02% Chicken Albumin, 0.05% Pluronic F127, 25 mM NaCl, 500 nM H4 peptide and 600 nM Acetyl Coenzyme A].The reaction was stopped by addition of Detection Solution (25mM HEPES pH 7.5, 0.1% BSA, 22nM SAXL665 (Cisbio #610SAXLE), 100μM Anacardic Acid (Enzo #ALX-270-381), 1nM Anti-Histone H4 (ACETYL K8) Antibody (ABCAM #AB15823), 0.5 nM Anti-Rabbit IgG Eu (Perkin Elmer #AD0083).The fluorescence emission at 620 nm and 665 nm after excitation at 330-350 nm was measured in a TR-FRET measuring instrument, for instance a Rubystar or a Pherastar (both from BMG Lab Technologies, Offenburg, Germany) or a Viewlux (Perkin-Elmer). The ratio of the emission at 665 nm and at 622 nm was used as indicator of the amount of acetylated peptide.The resulting data (ratio) were normalized, taking 0% inhibition as the mean value of control measurements where all reagents were included. In this case 50 nl DMSO were used instead of compounds. A 100% inhibition corresponded to the mean value of control measurements where all reagents except enzyme were included. IC50 values were determined by regression analysis based on a 4 parameter equation (minimum, maximum, ICM, Hill; Y = Max + (Min - Max) / (1 + (X/ICso) Hill) using the Screener Software (Genedata).

[2] = molecular target: T1, Histone acetyltransferase KAT6A [507-778] (Human, UniProt Q92794); test: Kat6a Activity Assay
T1 construct: 507-778
Source text: Kat6a inhibitory activities of the compounds described in the present invention were quantified using a Fluorescence Resonance Energy Transfer (TR-FRET) assay which measures acetylation of a synthetic, biotinylated Histone-H4-derived peptide by the enzyme.Recombinant human His-tagged Kat6a protein (amino acids 194-810), was purified in-house from Baculovirus- infected insect cells (Sf9). Histone H4 peptide (amino acids 1-24, […]-VLRD-K(Btn)-amide), which was used as substrate, was synthesized by Biosyntan GmbH, Berlin, Germany. Acetyl Coenzyme A was purchased from Sigma-Aldrich (#A-2056).Kat6a was incubated for 60 mins at 22°C in the presence of different concentrations of test substances (0 μM, and within the range 0.01 - 20 μM) in assay buffer [25 mM Tris/HCl pH 8, 1 mM EGTA, 2.5 mM Glutathion, 0.02% Chicken Albumin, 0.05% Pluronic F127, 25 mM NaCl, 220 nM H4 peptide and 600 nM Acetyl Coenzyme A].The reaction was stopped by addition of Detection Solution (25mM HEPES pH 7.5, 0.1% BSA, 22nM SAXL665 (Cisbio #610SAXLE), 100μM Anacardic Acid (Enzo #ALX-270-381), 1nM Anti-Histone H4 (ACETYL K8) Antibody (ABCAM #AB15823) and 0.5 nM Anti-Rabbit IgG Eu (Perkin Elmer #AD0083).

Chain of Histone acetyltransferase KAT6B (Q8WYB5 whole entry, the tested form may be a part): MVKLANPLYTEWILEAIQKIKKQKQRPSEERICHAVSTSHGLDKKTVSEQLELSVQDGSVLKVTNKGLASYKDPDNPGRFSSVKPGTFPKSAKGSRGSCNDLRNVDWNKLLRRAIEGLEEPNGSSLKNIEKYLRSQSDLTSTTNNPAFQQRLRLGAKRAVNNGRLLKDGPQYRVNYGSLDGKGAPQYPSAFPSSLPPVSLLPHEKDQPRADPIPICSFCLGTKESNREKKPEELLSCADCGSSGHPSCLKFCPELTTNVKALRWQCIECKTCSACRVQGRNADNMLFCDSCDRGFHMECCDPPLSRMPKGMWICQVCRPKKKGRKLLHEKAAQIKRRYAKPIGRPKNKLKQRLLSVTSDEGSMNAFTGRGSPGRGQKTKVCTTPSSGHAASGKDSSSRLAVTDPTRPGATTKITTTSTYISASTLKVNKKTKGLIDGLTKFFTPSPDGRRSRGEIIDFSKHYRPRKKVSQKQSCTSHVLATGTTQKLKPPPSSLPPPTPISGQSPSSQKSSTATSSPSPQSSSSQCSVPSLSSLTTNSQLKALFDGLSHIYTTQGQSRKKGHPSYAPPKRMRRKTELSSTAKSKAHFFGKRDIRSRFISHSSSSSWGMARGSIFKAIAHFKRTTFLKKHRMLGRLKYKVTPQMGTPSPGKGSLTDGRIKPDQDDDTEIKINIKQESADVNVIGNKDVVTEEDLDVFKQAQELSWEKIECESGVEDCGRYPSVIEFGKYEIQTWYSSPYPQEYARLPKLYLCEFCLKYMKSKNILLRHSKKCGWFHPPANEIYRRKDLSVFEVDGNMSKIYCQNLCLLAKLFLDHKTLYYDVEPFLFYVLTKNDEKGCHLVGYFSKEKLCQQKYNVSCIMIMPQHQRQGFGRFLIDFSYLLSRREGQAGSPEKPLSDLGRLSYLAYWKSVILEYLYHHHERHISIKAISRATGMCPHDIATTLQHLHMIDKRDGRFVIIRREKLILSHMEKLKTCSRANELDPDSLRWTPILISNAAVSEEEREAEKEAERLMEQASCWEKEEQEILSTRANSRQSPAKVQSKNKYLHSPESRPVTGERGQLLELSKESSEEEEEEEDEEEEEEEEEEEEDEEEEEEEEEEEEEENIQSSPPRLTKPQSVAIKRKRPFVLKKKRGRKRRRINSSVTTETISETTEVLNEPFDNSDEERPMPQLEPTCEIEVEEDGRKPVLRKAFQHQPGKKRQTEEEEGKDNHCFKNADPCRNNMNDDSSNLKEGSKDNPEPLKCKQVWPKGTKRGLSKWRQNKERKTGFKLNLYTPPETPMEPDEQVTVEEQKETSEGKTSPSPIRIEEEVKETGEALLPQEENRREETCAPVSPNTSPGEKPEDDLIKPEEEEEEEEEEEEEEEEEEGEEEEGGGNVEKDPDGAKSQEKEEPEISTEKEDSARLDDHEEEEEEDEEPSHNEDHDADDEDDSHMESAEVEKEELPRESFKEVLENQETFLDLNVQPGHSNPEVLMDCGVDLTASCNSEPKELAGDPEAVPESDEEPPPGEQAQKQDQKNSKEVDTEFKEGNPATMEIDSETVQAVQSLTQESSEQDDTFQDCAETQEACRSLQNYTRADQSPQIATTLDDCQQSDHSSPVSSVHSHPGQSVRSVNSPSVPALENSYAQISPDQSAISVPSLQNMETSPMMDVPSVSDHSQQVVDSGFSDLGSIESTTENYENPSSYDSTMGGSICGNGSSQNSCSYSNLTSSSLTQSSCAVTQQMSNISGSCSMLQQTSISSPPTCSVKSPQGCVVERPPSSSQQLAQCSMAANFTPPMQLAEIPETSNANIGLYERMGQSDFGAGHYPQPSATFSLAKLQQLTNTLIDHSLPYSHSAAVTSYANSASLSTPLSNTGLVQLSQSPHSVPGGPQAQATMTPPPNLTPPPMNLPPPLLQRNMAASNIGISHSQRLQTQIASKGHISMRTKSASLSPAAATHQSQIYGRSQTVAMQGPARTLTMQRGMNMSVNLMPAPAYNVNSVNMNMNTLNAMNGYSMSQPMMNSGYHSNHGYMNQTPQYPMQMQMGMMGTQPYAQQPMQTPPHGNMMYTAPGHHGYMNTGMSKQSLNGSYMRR
T1 sequence (Q92794 whole entry): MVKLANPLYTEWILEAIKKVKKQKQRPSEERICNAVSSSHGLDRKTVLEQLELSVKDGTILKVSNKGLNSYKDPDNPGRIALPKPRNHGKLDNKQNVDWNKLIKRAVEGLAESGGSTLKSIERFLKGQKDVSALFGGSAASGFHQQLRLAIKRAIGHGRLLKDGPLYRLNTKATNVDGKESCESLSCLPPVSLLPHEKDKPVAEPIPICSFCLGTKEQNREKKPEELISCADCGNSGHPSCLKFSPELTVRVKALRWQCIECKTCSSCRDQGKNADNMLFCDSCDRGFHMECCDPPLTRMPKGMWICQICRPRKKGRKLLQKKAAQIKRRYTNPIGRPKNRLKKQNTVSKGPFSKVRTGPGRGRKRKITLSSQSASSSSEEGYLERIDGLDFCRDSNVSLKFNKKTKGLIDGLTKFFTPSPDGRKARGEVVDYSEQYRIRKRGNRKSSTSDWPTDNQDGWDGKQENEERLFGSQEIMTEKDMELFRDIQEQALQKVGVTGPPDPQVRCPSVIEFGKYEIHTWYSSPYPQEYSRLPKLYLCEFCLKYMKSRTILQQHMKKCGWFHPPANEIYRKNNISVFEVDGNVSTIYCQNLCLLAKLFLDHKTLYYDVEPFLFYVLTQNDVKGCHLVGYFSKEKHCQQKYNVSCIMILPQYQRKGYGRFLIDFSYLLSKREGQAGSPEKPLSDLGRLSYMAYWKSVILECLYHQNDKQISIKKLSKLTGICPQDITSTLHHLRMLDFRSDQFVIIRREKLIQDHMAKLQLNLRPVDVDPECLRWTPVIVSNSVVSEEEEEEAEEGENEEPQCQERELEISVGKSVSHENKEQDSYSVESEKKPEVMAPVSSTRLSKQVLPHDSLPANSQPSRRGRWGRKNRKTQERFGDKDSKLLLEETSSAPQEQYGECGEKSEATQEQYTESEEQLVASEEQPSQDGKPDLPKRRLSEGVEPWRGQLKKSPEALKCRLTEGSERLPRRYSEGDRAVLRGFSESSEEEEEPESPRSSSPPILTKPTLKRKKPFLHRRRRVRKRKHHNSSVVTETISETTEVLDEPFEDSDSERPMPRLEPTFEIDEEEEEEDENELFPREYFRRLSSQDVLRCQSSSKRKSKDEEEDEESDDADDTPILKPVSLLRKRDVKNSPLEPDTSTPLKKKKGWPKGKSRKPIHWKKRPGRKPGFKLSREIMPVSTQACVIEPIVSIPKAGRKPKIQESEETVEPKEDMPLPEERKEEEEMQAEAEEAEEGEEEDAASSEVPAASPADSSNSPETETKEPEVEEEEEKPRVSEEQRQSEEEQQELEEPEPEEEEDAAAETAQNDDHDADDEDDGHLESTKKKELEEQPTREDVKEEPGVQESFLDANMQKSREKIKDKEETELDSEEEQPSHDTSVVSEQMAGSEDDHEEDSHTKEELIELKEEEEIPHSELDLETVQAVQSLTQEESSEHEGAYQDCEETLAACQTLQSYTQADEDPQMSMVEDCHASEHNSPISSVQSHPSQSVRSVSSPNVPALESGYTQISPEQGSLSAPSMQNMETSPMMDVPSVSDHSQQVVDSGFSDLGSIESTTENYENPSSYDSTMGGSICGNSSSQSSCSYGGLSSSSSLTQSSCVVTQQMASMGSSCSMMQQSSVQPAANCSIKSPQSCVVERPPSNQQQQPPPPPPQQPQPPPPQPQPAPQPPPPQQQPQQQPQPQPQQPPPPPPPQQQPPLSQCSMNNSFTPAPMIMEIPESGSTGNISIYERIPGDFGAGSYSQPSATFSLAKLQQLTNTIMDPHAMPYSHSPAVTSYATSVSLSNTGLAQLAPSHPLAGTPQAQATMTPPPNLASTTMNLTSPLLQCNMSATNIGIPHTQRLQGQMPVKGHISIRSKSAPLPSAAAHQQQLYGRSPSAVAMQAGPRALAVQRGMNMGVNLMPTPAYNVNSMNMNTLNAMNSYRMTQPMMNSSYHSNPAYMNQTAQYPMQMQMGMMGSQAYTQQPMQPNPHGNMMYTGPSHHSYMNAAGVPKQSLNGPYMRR

Row | SMILES | IC50 [1] [nM] | IC50 [2] [nM]
1 | O=C(NS(=O)(=O)c1ccccc1-c1ccccc1)c1cc2ccc(-c3cccnc3)cc2o1 [WO2022081842, Example 4] | > 20000 | 
2 | O=C(O)c1ccc2cc(C(=O)NS(=O)(=O)c3ccccc3-c3ccccc3)oc2c1 [WO2022081842, Example 5] | > 20000 | 
3 | CN(C)C(=O)c1ccc2cc(C(=O)NS(=O)(=O)c3ccccc3-c3ccccc3)oc2c1 [WO2022081842, Example 8] | > 20000 | 
4 | Cc1ccc2cccc(S(=O)(=O)NC(=O)c3cc4c(F)cc(C5CC5)cc4o3)c2n1 [WO2022081842, Example 22] | 23 | 
5 | C=C(C)c1ccc2cc(C(=O)NS(=O)(=O)c3ccccc3-c3ccccc3)oc2c1 [WO2022081842, Example 23] | 155 | 215
6 | CCOc1ccccc1S(=O)(=O)NC(=O)c1cc2c(F)cc(C3CC3)cc2o1 [WO2022081842, Example 25] | 28 | 
7 | O=C(NS(=O)(=O)c1ccccc1-c1ccccc1)c1cc2c(F)cc(C3CC3)cc2o1 [WO2022081842, Example 38] |  | 17
8 | CCOc1ccccc1S(=O)(=O)NC(=O)c1cc2c(OC(F)F)cc(C3CC3)cc2o1 [WO2022081842, Example 49] |  | 29
9 | CCOc1ccccc1S(=O)(=O)NC(=O)c1cc2c(C(F)(F)F)cc(C3CC3)cc2o1 [WO2022081842, Example 51] |  | 26
10 | CC(C)c1ccc2cc(C(=O)NS(=O)(=O)c3ccc(Cl)cc3Cl)oc2c1 [WO2022081842, Example 57] | 5250 | 611
11 | CCOc1ccccc1S(=O)(=O)NC(=O)c1cc2c(-n3ccnc3)cc(C3CC3)cc2o1 [WO2022081842, Example 58] |  | 40
12 | CC(C)(C)c1ccc(OCc2ccccc2)c(S(=O)(=O)NC(=O)c2cc3c(F)cc(C4CC4)cc3o2)c1 [WO2022081842, Example 60] | 45 | 
